{
  "source": "paper PMC6325233",
  "about": "“A Novel Actin Binding Drug with In Vivo Efficacy” (Antimicrobial Agents and Chemotherapy, 2018)",
  "key": {"[1]": {"system": "rabbit skeletal muscle filamentous actin", "assay": "In vitro actin filament microscopy", "assay_type": "biochemical", "settings": "24 μg actin with 4 or 8 μg native occidiofungin (8 μg alkyne-OF), 15 min", "method": "Purified rabbit skeletal muscle filamentous actin (catalog number AKF99) and G-actin (catalog number AKL95) were purchased from Cytoskeleton, Inc. Actin was reconstituted in Milli-Q water to achieve a stock concentration of 0.4 mg/ml in a buffer that consisted of 5 mM Tris-HCl (pH 8.0), 0.2 mM CaCl2, 0.2 mM ATP, 2 mM MgCl2, and 5% (wt/vol) sucrose as directed by the supplier. This solution was stored at −80°C in 50-μl aliquots until use. Immediately before use, each aliquot was thawed by placing it in a 37°C water bath for 5 min and then at room temperature. For all studies, 24 μg of F- or G-actin was used with 8 μg alkyne-OF. F-actin filaments were reacted with native occidiofungin for 15 min at room temperature at molar ratios of 1:10 (24 μg actin to 8 μg native occidiofungin) and 1:5 (24 μg actin to 4 μg native occidiofungin). As per the manufacturer’s instructions, Acti-stain 670 phalloidin (Cytoskeleton, Inc.) was used as a control in an in vitro actin filament binding study. Actin filaments treated with DMSO (solvent blank negative control) were stained and observed for comparison. The actin filaments were visualized on an Olympus FV1000 confocal microscope. Pulldown assays were performed using alkyne-OF with azide-biotin (Click-iT protein reaction buffer kit; Thermo Fisher Scientific), according to the manufacturer’s instructions. […]"}, "[2]": {"system": "Trichophyton mentagrophytes 10207", "assay": "MIC susceptibility testing (itraconazole-resistant strain)", "assay_type": "cell-based", "settings": "CLSI M38-A2; 96 hours", "method": "(§1) Occidiofungin was purified from a liquid culture of Burkholderia contaminans MS14 as previously described ([21]). MIC susceptibility testing was performed according to the CLSI M27-A3 and M38-A2 standards for the susceptibility testing of yeasts and filamentous fungi, respectively. S. cerevisiae deletion mutants were obtained from the commercially available BY4741 deletion library (Thermo Scientific)."}, "[3]": {"system": "Trichophyton rubrum 11199", "assay": "MIC susceptibility testing (terbinafine-resistant strain)", "assay_type": "cell-based", "settings": "CLSI M38-A2; 96 hours", "method": "as §1"}, "F-actin": {"system": "F-actin", "assay": "Actin polymerization and depolymerization assays", "assay_type": "biochemical", "settings": "20 μg occidiofungin in 20 μL of 1.5% β-cyclodextrin in PBS, pyrene actin"}, "[4]": {"system": "Rhizopus microsporus 28506", "assay": "MIC susceptibility testing", "assay_type": "cell-based", "parameters": "key to MIC, 50% inhibition: -: indicates absence of isolates with 50% inhibition endpoint", "settings": "CLSI M38-A2", "method": "as §1"}, "[5]": {"system": "clinically relevant fungi", "assay": "Spectrum of antifungal activity (summary)", "assay_type": "cell-based", "method": "as §1"}, "[6]": {"settings": "cited from earlier work", "method": "Occidiofungin is a nonribosomally synthesized glycolipopeptide produced by the soil bacterium Burkholderia contaminans MS14 ([21]). It is a cyclic peptide with a base mass of 1,200 Da (Fig. 1) ([21]). Occidiofungin has a wide spectrum of activities against filamentous and nonfilamentous fungi and minimal toxicity in an animal system ([21], [22]). […] Occidiofungin, on the other hand, is well tolerated at 5 mg/kg or 20 mg/kg when administered intravenously or subcutaneously, respectively ([22], [25]). This dose is much higher than the MIC of occidiofungin against several fungal pathogens. ..."}},
  "note": "“Also recorded” adds a separate entry of the source.",
  "data": [
    {"substance": "occidiofungin", "values": [
      {"measurement": "effect on F-actin morphology", "setting": "[1]", "value": "the morphology of F-actin changed in the presence of occidiofungin in a dose-dependent manner"},
      {"measurement": "effect on F-actin morphology", "setting": "[1]; listed as native occidiofungin", "value": "a high degree of aggregation of the filaments"},
      {"measurement": "MIC, 80% inhibition", "setting": "[2]", "value": 1, "unit": "µg/mL"},
      {"measurement": "MIC, 100% inhibition", "setting": "[2]", "value": 2, "unit": "µg/mL"},
      {"measurement": "MIC, 80% inhibition", "setting": "[3]", "value": 1, "unit": "µg/mL"},
      {"measurement": "MIC, 100% inhibition", "setting": "[3]", "value": 2, "unit": "µg/mL"},
      {"measurement": "effect on polymerization or depolymerization of F-actin", "setting": "F-actin", "value": "no effect on the polymerization or depolymerization properties of F-actin"},
      {"measurement": "MIC, 50% inhibition", "setting": "[4]; 24 hours", "value": 4, "unit": "µg/mL"},
      {"measurement": "MIC, 100% inhibition", "setting": "[4]; 24 hours", "value": 8, "unit": "µg/mL"},
      {"measurement": "MIC, 50% inhibition", "setting": "[4]; 48 hours", "value": "-"},
      {"measurement": "MIC, 100% inhibition", "setting": "[4]; 48 hours", "value": 8, "unit": "µg/mL"},
      {"measurement": "activity against filamentous fungi", "setting": "[5]; Aspergillus, Mucor, Fusarium, Rhizopus, and azole- and terbinafine-resistant Trichophyton", "value": "active"},
      {"measurement": "activity against fluconazole- and caspofungin-resistant Candida", "setting": "[5]; Candida albicans, Candida glabrata, Candida parapsilosis resistant to fluconazole and caspofungin", "value": "sensitive to occidiofungin"},
      {"measurement": "activity against caspofungin-resistant strains", "setting": "[5]; Candida parapsilosis and C. neoformans resistant to caspofungin", "value": "susceptible to treatment with occidiofungin"},
      {"measurement": "activity against C. auris", "setting": "[5]; strains of C. auris", "value": "sensitive to occidiofungin at submicromolar concentrations"},
      {"measurement": "activity against filamentous and nonfilamentous fungi", "setting": "[5]; summary of Table S1", "value": "low micromolar inhibitory activity; also recorded: activity against filamentous and nonfilamentous fungi at submicromolar concentrations"},
      {"measurement": "spectrum of activities vs other clinically available antifungals", "setting": "[5]; summary of Table S1", "value": "broader spectrum of activities"},
      {"measurement": "blood cells and blood chemistry", "setting": "[6]", "value": "no serious signs of toxicity"},
      {"measurement": "toxicity at 5 mg/kg intravenous", "setting": "[6]; intravenous, 5 mg/kg, mice", "value": "minimal induced toxicity"},
      {"measurement": "well tolerated dose, intravenous", "setting": "[6]; intravenous", "value": 5, "unit": "mg/kg"},
      {"measurement": "blood chemistry and histopathology", "setting": "[6]; mice, 5 mg/kg intravenous", "value": "a transient nonspecific stress response with no damage to organ tissues"},
      {"measurement": "well tolerated dose, subcutaneous", "setting": "[6]; subcutaneous", "value": 20, "unit": "mg/kg"}
    ]}
  ]
}
